According to patent US20210323976A1, “HETEROARYL COMPOUNDS FOR KINASE INHIBITION” (ARIAD Pharmaceuticals, Inc., priority 2015, published 2021):

How the values were obtained:
[1] = biological target: T1, EGFR exon 20 ASV insertion (V769_D770insASV) (Homo sapiens, UniProt P00533, INS769ASV); assay: Ba/F3-EGFR-Exon20-ASV cell anti-proliferation assay (MTS, CellTiter 96 AQueous One); type: cell-based; conditions: Ba/F3-EGFR-Exon20-ASV cells, 72 h, MTS signal
T1 construct: expressed in transfected cells; host or cells: Ba/F3 (murine pro-B) cells, lentiviral transduction with pLVX-IRES puro
T1 sequence (P00533 with tags, fused parts or gaps INS769ASV): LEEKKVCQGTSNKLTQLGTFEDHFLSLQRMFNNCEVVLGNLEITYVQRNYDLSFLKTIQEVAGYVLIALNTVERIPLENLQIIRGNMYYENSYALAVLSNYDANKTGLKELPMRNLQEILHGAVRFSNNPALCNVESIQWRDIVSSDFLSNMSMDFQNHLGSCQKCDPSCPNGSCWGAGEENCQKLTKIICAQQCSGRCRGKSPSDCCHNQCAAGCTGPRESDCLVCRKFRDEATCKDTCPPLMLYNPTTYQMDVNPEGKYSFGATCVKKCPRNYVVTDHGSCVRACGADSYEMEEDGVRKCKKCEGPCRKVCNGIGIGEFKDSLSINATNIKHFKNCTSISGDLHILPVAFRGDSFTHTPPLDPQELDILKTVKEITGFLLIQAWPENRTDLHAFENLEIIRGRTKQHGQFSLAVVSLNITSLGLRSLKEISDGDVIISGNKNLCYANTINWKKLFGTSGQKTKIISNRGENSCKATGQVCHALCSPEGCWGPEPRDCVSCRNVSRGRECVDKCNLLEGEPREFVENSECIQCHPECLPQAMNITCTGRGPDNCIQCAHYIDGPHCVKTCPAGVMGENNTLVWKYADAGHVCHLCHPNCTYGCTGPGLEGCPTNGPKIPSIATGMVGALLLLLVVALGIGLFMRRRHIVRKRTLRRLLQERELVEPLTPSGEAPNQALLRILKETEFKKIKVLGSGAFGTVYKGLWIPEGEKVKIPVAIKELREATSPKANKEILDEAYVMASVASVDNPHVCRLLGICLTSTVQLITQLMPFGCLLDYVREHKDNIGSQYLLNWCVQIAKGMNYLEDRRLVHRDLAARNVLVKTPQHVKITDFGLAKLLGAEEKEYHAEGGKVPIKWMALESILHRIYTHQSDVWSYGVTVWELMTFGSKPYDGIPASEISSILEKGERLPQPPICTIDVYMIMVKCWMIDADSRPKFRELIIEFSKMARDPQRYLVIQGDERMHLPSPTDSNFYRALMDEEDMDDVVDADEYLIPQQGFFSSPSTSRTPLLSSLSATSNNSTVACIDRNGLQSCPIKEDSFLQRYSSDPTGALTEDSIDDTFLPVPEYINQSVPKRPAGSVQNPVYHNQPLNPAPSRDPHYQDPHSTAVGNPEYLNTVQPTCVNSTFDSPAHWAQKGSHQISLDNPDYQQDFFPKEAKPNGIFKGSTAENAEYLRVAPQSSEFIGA
Text: (§1) A compound's ability in selectively inhibiting EGFR exon 20 insertion mutations can be assessed using Ba/F3 cells, a murine pro-B cell line, which have been transduced with EGFR exon 20 insertions. An expression vector, pLVX-IRES puro (Clontech) coding for human EGFR exon 20 insertions NPG (H773_V774insNPG) or ASV (V769_D770insASV), was transfected into HEK293 cells by the Trans-Lentiviral ORF Packaging System (Thermo Scientific), to produce virus encoding EGFR exon 20 insertions. Ba/F3 (DSMZ) cells maintained in RPM11640 medium supplemented with 10% fetal bovine serum, 200 pM L-glutamine/200 µg/mL penicillin/200 µg/mL streptomycin (Life Technology) and 10 ng/mL IL-3 (R&D system), were infected by EGFR Exon20 virus and subsequently selected by puromycin (Life Technology) selection and IL-3 depletion. Ba/F3 cells expressing EGFR exon 20 insertions (named Ba/F3-EGFR-Exon20-NPG or Ba/F3-EGFR-Exon20-ASV) can proliferate in the absence of IL-3. The anti-proliferative activity of compounds were determined as follows: BaF3-EGFR-Exon20 cells (NPG or ASV) seeded in 96 well plates (2500 cells/well) were treated with test compound (dissolved in DMSO) at a series of concentrations (4-fold dilution, top concentration: 10,000 nM). The plates were incubated for 72 h in a 37° C. incubator with 5% CO2, and the number of viable cells in each well were measured indirectly by CellTiter 96® Aqueous One Solution Cell Proliferation Assay (Promega) This assay is a colorimetric method for determining the number of viable cells through measurement of their metabolic activity by detection of enzymatic conversion of tetrazolium salts into blue formazan derivatives. Reagent (20 pL) was added into each well, and the plates were returned to the incubator for 2 h. The absorbance in each well was then measured at 490 nm using an Envision plate reader (Perkin Elmer). IC50 values were calculated by determining the concentration of compound required to decrease the MTS signal by 50% comparing to the DMSO control in best-fit curves using Microsoft XLfit software or Accelrys Pipeline Pilot.

[2] = biological target: EGFR exon 20 NPG insertion (H773_V774insNPG) (Homo sapiens, UniProt P00533, cells depend on it, form not given); assay: Ba/F3-EGFR-Exon20-NPG cell anti-proliferation assay (MTS, CellTiter 96 AQueous One); type: cell-based; conditions: 72 h, MTS signal
Chain of EGFR exon 20 NPG insertion (H773_V774insNPG) (P00533 with tags, fused parts or gaps INS772GNP, form open): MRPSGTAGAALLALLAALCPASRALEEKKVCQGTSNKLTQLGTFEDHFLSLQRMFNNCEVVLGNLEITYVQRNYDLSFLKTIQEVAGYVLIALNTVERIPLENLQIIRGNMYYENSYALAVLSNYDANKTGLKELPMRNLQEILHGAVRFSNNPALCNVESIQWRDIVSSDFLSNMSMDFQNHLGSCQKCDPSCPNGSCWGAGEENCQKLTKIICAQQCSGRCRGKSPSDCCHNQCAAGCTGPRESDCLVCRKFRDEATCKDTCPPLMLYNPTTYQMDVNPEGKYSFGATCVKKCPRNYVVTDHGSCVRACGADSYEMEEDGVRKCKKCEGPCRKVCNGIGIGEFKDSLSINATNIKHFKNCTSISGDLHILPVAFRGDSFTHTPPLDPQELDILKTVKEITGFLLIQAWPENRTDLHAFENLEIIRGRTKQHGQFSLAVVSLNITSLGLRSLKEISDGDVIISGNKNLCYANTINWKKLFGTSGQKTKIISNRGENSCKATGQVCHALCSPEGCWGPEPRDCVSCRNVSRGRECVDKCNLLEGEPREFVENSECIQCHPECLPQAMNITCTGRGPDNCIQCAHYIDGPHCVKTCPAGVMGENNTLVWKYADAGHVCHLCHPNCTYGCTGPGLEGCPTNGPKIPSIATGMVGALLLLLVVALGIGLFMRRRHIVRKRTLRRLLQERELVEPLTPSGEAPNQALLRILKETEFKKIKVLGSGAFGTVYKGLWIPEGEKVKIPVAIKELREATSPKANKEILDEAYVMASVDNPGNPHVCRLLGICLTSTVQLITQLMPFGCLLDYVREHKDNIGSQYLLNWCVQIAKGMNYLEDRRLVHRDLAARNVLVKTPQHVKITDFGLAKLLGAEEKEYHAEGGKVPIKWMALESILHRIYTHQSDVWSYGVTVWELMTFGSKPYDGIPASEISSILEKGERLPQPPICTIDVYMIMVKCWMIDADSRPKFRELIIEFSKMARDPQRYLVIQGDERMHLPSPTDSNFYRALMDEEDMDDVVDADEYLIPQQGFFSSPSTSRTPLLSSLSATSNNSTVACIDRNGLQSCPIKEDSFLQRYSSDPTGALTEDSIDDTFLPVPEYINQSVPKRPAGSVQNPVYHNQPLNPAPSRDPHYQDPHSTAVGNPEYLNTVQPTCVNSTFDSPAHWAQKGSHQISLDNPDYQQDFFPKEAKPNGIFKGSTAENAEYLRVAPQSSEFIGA
Text: as §1

| SMILES | IC50 [1] [nM] | IC50 [2] [nM] |
| --- | --- | --- |
| C=CC(=O)Nc1cc(Nc2nccc(-c3c4n(c5ccccc35)CCOC4)n2)c(OC)cc1N(C)CCN(C)C [Example 1, N-(5-((4-(3,4-dihydro-1H-[1,4]oxazino[4,3-a]indol-10-yl)pyrimidin-2-yl)amino)-2-((2-(dimethylamino)ethyl)(methyl)amino)-4-methoxyphenyl)acrylamide] | < 100 | < 100 |
| C=CC(=O)Nc1cc(Nc2nccc(-c3c4n(c5ccccc35)CCN(C)C4=O)n2)c(OC)cc1N(C)CCN(C)C [Example 2, N-(2-((2-(dimethylamino)ethyl)(methyl)amino)-4-methoxy-5-((4-(2-methyl-1-oxo-1,2,3,4-tetrahydropyrazino[1,2-a]indol-10-yl)pyrimidin-2-yl)amino)phenyl)acrylamide] | 100 to 500 |  |
| C=CC(=O)Nc1cc(Nc2nccc(-c3c4n(c5ccccc35)CC(O)CC4)n2)c(OC)cc1N(C)CCN(C)C (stereo not shown) [Example 3, N-(2-((2-(dimethylamino)ethyl)(methyl)amino)-5-((4-(7-hydroxy-6,7,8,9-tetrahydropyrido[1,2-a]indol-10-yl)pyrimidin-2-yl)amino)-4-methoxyphenyl)acrylamide] | < 100 | < 100 |
| C=CC(=O)Nc1cc(Nc2nccc(-c3c4n(c5ccccc35)CC3OC(C)(C)OC3C4)n2)c(OC)cc1N(C)CCN(C)C (stereo not drawn) [Example 4, N-(5-((4-(cis-2,2-dimethyl-3a,4,11,11a-tetrahydro-[1,3]dioxolo[4′,5′:4,5]pyrido[1,2-a]indol-10-yl)pyrimidin-2-yl)amino)-2-((2-(dimethylamino)ethyl)(methyl)amino)-4-methoxyphenyl)acrylamide] | < 100 |  |
| C=CC(=O)Nc1cc(Nc2nccc(-c3c4n(c5ccccc35)CCCC4)n2)c(OC)cc1N(C)CCN(C)C [Example 5, N-(2-((2-(dimethylamino)ethyl)(methyl)amino)-4-methoxy-5-((4-(6,7,8,9-tetrahydropyrido[1,2-a]indol-10-yl)pyrimidin-2-yl)amino)phenyl)acrylamide] | < 100 |  |
| C=CC(=O)Nc1cc(Nc2nccc(-c3c4n(c5ccccc35)CC(O)C(O)C4)n2)c(OC)cc1N(C)CCN(C)C (stereo not drawn) [Example 6, N-(5-((4-(cis-7,8-dihydroxy-6,7,8,9-tetrahydropyrido[1,2-a]indol-10-yl)pyrimidin-2-yl)amino)-2-((2-(dimethylamino)ethyl)(methyl)amino)-4-methoxyphenyl)acrylamide] | < 100 |  |
| C=CC(=O)Nc1cc(Nc2nccc(-c3c4n(c5ccccc35)CC(OC)CC4)n2)c(OC)cc1N(C)CCN(C)C (stereo not shown) [Example 7, N-(2-((2-(dimethylamino)ethyl)(methyl)amino)-4-methoxy-5-((4-(7-methoxy-6,7,8,9-tetrahydropyrido[1,2-a]indol-10-yl)pyrimidin-2-yl)amino)phenyl)acrylamide] | < 100 |  |
| C=CC(=O)Nc1cc(Nc2nccc(-n3c4c(c5ccccc53)CC(O)CC4)n2)c(OC)cc1N(C)CCN(C)C (stereo not shown) [Example 10, N-(2-((2-(dimethylamino)ethyl)(methyl)amino)-5-((4-(3-hydroxy-1,2,3,4-tetrahydro-9H-carbazol-9-yl)pyrimidin-2-yl)amino)-4-methoxyphenyl)acrylamide] | < 100 |  |
